# Results published in publication PMC3781034, “A Small-Animal Pharmacokinetic/Pharmacodynamic PET Study of Central Serotonin 1A Receptor Occupancy by a Potential Therapeutic Agent for Overactive Bladder” (PLoS ONE, 2013).
# Like-named read-outs stand apart in the source and are kept apart here.
# Columns and labels:
# [1] = Protein binding of E2110 in rat plasma (equilibrium dialysis); format: in vitro ADME
# Description: The in vitro unbound fraction of […] in male SD rat plasma was quantified by equilibrium dialysis. One mL of the […] spiked sample (100, 1000 and 10000 ng/mL) and phosphate buffered saline (PBS) were applied to one and the other chambers of a dialysis cell, respectively. The cartridge was incubated in a water bath for 24 hr at 37°C. After incubation, aliquots were sampled from both chambers and submitted to determination of the concentration of […] in each matrix by liquid chromatography-tandem mass spectrometry. Unbound fractions for each compound were calculated as the ratio of […] concentration from the PBS side to that from the plasma side of the dialysis apparatus. Concentrations of […] were determined in plasma or PBS by liquid chromatography - tandem mass spectrometry. Samples (5 μL) were injected into an L-column ODS (35 × 2.1 mm; 5 μM, Chemical Evaluation and Research Institute, Tokyo, Japan) with a flow rate of 0.6 mL/min. We used 0.1% formic acid in water and acetonitrile as mobile phase A and B, respectively. […] […] was monitored using mass transitions of 490.4/459.2. Tamsulosin was used as an internal standard, and was monitored using a mass transition of 409.3/200.0. The lower limit of quantification of […] in plasma was 0.5 ng/mL.
# [2] = target: T1, 5-HT1A receptors (Rattus norvegicus, UniProt P19327); experiment: PET 5-HT1A receptor occupancy, dose-response study ([11C]WAY-100635, Emax model); format: in vivo, Sprague-Dawley rat
# T1 construct: occupancy of 5-HT1A receptors in living Sprague-Dawley rat brains; from tissue; host or cells: living Sprague-Dawley rat brain (medial prefrontal cortex, dorsal raphe nucleus), in vivo PET
# T1 sequence (P19327 1-422): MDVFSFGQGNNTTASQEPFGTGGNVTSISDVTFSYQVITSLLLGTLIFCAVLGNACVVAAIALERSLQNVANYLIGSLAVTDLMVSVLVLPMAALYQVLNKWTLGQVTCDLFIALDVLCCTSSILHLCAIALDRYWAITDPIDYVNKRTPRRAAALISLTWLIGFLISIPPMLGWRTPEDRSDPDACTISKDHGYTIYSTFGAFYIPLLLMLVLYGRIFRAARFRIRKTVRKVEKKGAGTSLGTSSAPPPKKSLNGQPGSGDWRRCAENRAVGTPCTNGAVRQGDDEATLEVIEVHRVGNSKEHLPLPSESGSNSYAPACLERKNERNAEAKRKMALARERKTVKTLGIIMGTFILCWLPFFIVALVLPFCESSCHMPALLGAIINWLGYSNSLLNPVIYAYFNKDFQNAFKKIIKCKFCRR
# Description: All PET scans for rats were performed with a small animal-dedicated microPET FOCUS 220 system (Siemens Medical Solutions USA, Knoxville, TN, USA), which yields a 25.8 cm (transaxial) × 7.6 cm (axial) field of view (FOV) and a spatial resolution of 1.3 mm full width at half maximum at the center of FOV [8]. The rats were anesthetized with 1.5-2% isoflurane in air (2 L/min flow rate). Their body temperature was controlled using homeothermic controller and plate with a rectal probe, and their heart rates and arterial oxygen saturations were continuously measured by a pulse oximeter (CANL-425SVA; Med Associates, St. Albans, VT, USA). We also monitored respiration rates of these animals with a custom-made monitoring system (Nagano Electronics, Hitachinaka, Japan). A 20-min transmission scan for attenuation correction was performed using a spiraling ^68Ge-^68Ga point source. Subsequently, list-mode scans were carried out for 90 min. All list-mode data were sorted and Fourier rebinned into two-dimensional sinograms (frames: 4 × 1, 8 × 2, and 14 × 5 min). Images were thereafter reconstructed using two-dimensional filtered back-projection with a 0.5-mm Hanning filter. [^11C]-WAY-100635 was injected via the tail vein as a single bolus at the start of emission scanning. The injected dose of the radiotracer was 85.3 ± 28.6 MBq/rat (mean ± SD).
# Anatomical regions of interest (ROIs) were placed on the medial prefrontal cortex (MPFC) and dorsal raphe nucleus (DRN) using PMOD® image software (PMOD Group, Zurich, Switzerland) with reference to the MRI template. Radioligand binding was examined by calculating the binding potential (BP ND; ratio at equilibrium of specifically-bound radioligand to that of nondisplaceable radioligand in tissue) based on a simplified reference tissue model (SRTM) using the cerebellar time-radioactivity curve as reference.
# Occupancy of 5-HT1A receptors by E2110 was calculated using the following equation:
# RO(%)=BPND,baseline−BPND,drug/BPND,baseline×100 (2)
# where BP ND, baseline and BP ND, drug are estimated BP ND at baseline and following drug administration, respectively.
# To examine the dose-RO relationship at a single time point, four male SD rats, which had undergone a baseline PET imaging in advance, were scanned with PET at 4 hours after being pretreated with 4 oral doses (0.3, 1, 3, 10 mg/kg) of E2110. In this assay, approximately 250 µL of blood samples were collected from the tail vein upon initiation of the scan for quantification of plasma concentration of E2110. We further examined RO at different time points after the drug administration by conducting PET scans of four male SD rats at 2, 4, 6 or 8 hours after pretreatment with a single oral dose of 1 mg/kg E2110. In addition to this series of PET assays for male rats, pilot PET scans for female rats (n = 3) were carried out at baseline and 4 hours after oral administration of 0.1 mg/kg E2110 to examine whether relationships between plasma concentration of E2110 and RO by this drug in the brain are consistent between two genders. In all experiments, scans for the same individual receiving E2110 were conducted more than 1 week apart.
# As described in previous studies on 5-HT1A receptor antagonists the relationship between RO and plasma drug concentration at equilibrium can be described according to the law of mass action by the curvilinear function, based on the assumption that the free brain concentration is equal to free plasma concentration and the free fraction in plasma is not concentration-dependent:
# RO(%)=ROmax/Kdapp+CpCp (3)
# where ROmax is the maximum occupancy that can be induced by E2110, Kd ^app the apparent equilibrium constant, and Cp the plasma concentration of E2110. This model is analogous to the Emax model:
# where Emax (ROmax) is the maximum effect (maximum RO) and EC50 (= Kd) is the E2110 plasma concentration required to produce 50% of Emax. […]
smiles,measurement,setting,value
"CNC(=O)c1ccc2ccn(C3CCN(CCc4c(OC)ccc5c4OC(C)(C)CC5=O)CC3)c2c1.O=C(O)/C=C/C(=O)O [E2110, 1-{1-[2-(7-Methoxy-2,2-dimethyl-4-oxochroman-8-yl)ethyl]piperidine-4-yl}-N-methyl-1H-indole-6-carboxamide fumarate]",concentration dependence of binding to plasma proteins,"[1]; at 0.1, 1 µM",not dependent on its concentration
same,average percentage of protein-unbound E2110 in plasma,"[1]; male SD rat plasma, equilibrium dialysis 24 hr 37°C",6%
same,5-HT1A RO at high doses,"[2]; 3 and 10 mg/kg oral, 4 h, both ROIs (MPFC, DRN)",full occupancy
same,EC50,"[2]; DRN, dose-response study, 4 h after oral 0.3-10 mg/kg, male SD rats, Emax model, read-out: EC50 (plasma concentration required for 50% 5-HT1A RO) (converted)",5.4 nM
same,EC50,"[2]; DRN, dose-response study, Emax model, read-out: EC50 (plasma concentration required for 50% 5-HT1A RO) (converted)",4.36 nM
same,EC50,"[2]; DRN, dose-response study, EC50 x unbound fraction in plasma, read-out: free concentration-based EC50 for 5-HT1A RO (converted)",0.32 nM
same,EC50,"[2]; DRN, dose-response study, read-out: free concentration-based EC50 for 5-HT1A RO (converted)",0.264 nM
same,EC50,"[2]; DRN, free CNS concentration assumed one-tenth of free plasma, read-out: in vivo EC50 corrected for the difference in free drug concentrations between plasma and CNS",0.032 nM
same,free concentration-based EC50 relative to in vitro Ki,"[2]; MPFC and DRN, dose-response study",approximately 10 fold
same,EC50,"[2]; MPFC, dose-response study, 4 h after oral 0.3-10 mg/kg, male SD rats, Emax model, read-out: EC50 (plasma concentration required for 50% 5-HT1A RO) (converted)",7.51 nM
same,EC50,"[2]; MPFC, dose-response study, Emax model, read-out: EC50 (plasma concentration required for 50% 5-HT1A RO) (converted)",6.08 nM
same,EC50,"[2]; MPFC, dose-response study, EC50 x unbound fraction in plasma, read-out: free concentration-based EC50 for 5-HT1A RO (converted)",0.45 nM
same,EC50,"[2]; MPFC, dose-response study, read-out: free concentration-based EC50 for 5-HT1A RO (converted)",0.363 nM
same,EC50,"[2]; MPFC, free CNS concentration assumed one-tenth of free plasma, read-out: in vivo EC50 corrected for the difference in free drug concentrations between plasma and CNS",0.045 nM
same,"5-HT1A RO, dose dependence","[2]; single oral doses of 0.3, 1, 3, and 10 mg/kg, each region",dose-dependently induced 5-HT1A RO
